From patent US11427548B2 (Arvinas Operations, Inc., priority 2015, dated 2022)
Like-named read-outs stand apart in the source and are kept apart here.

Biological target: T1, Androgen Receptor (Homo sapiens, UniProt P10275)
T1 construct: endogenous in cells; host or cells: VCaP cells
T1 sequence (P10275 1-920): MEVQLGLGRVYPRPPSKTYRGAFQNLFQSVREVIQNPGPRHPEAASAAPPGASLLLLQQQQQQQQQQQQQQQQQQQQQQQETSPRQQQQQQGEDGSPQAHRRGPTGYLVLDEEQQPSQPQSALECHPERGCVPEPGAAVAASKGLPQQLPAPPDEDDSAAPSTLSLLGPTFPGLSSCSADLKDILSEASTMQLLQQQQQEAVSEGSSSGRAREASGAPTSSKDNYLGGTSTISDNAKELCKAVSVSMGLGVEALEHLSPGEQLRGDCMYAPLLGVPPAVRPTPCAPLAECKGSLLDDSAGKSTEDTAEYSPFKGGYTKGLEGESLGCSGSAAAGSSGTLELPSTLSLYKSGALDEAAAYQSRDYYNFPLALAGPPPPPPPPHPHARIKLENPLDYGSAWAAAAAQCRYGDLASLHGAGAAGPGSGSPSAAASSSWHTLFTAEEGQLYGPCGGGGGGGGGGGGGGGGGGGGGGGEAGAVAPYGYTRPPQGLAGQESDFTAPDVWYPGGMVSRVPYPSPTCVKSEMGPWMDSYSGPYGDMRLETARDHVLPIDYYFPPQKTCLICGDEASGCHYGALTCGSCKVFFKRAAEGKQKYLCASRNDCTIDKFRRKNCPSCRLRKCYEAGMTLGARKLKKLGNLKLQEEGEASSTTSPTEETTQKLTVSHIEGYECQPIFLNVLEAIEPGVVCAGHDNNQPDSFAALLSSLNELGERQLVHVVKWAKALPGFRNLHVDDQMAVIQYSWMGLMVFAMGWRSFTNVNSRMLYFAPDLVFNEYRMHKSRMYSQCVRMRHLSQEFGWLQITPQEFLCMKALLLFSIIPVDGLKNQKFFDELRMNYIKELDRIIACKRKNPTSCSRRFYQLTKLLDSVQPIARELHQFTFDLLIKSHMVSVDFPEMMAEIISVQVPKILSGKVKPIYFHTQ
Assay: Androgen Receptor ELISA assay (PathScan AR ELISA) in VCaP cells: AR degradation, Dmax and DC50
Type: cell-based
Procedure, shortened: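 After 24 h exposure of VCaP cells (charcoal-stripped serum, 0.1 nM R1881 agonist, 0.1% DMSO) to seven half-log compound concentrations, residual AR in lysates was measured by PathScan ELISA (TMB absorbance, 450 nm). Cells were plated at 30,000/well and grown at least 3 days beforehand.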

[1] = VCaP cells; Table 36; read-out: VCaP DC50
[2] = VCaP, VCaP cells; Table 36; read-out: VCaP Dmax (%)
[3] = VCaP cells; Table 35; read-out: VCaP DC50
[4] = VCaP, VCaP cells; Table 35; read-out: VCaP Dmax (%)

SMILES | DC50 [1] [nM] | Dmax [2] [%] | further results
Cc1ncsc1-c1ccc([C@@H](NC(=O)[C@@H]2C[C@@H](O)CN2C(=O)C(NC(=O)COCCN2CCN(c3ccc(C(=O)N[C@H]4C(C)(C)[C@H](Oc5ccc(C#N)c(C(F)(F)F)c5)C4(C)C)cn3)CC2)C(C)(C)C)C2COC2)cc1 (stereo partly drawn) [Example 705, N-((1r,3r)-3-(4-cyano-3-(trifluoromethyl)phenoxy)-2,2,4,4-tetramethylcyclobutyl)-6-(4-(2-(2-(((S)-1-((2S,4R)-4-hydroxy-2-(((S)-(4-(4-methylthiazol-5-yl)phenyl)(oxetan-3-yl)methyl)carbamoyl)pyrrolidin-1-yl)-3,3-dimethyl-1-oxobutan-2-yl)amino)-2-oxoethoxy)ethyl)pipera-zin-1-yl)nicotinamide] | < 50 | 26 to 50 | –
CC(C)[C@H](C(=O)N1C[C@H](O)C[C@H]1C(=O)N[C@@H](C)c1ccc(C#N)cc1)c1cc(OCCN2CCN(c3ccc(C(=O)N[C@H]4C(C)(C)[C@H](Oc5ccc(C#N)c(Cl)c5)C4(C)C)cn3)CC2)no1 [Example 696, N-((1r,3r)-3-(3-chloro-4-cyanophenoxy)-2,2,4,4-tetramethylcyclobutyl)-6-(4-(2-((5-((S)-1-((2S,4R)-2-(((S)-1-(4-cyanophenyl)ethyl)carb-amoyl)-4-hydroxypyrrolidin-1-yl)-3-methyl-1-oxobutan-2-yl)isoxazol-3-yl)oxy)ethyl)piperazin-1-yl)nicotinamide] | < 50 | – | Dmax (VCaP, read-out: VCaP Dmax (%), VCaP cells; Table 36): < 25%
Cc1ncsc1-c1ccc([C@H](C)NC(=O)C2CC3CN2C(=O)C(C(C)(C)C)NC(=O)COCCCOCCC(CCOc2ccc(N4C(=O)N(c5ccc(C#N)c(C(F)(F)F)c5)C(=O)C4(C)C)cc2)OC(=O)CCCCCn2cc(nn2)CCC(=O)O3)cc1 (stereo partly drawn) [Example 629, (63R,8S,Z)-8-(tert-butyl)-19-(2-(4-(3-(4-cyano-3-(trifluoromethyl)phenyl)-5,5-dimethyl-4-oxo-2-thioxoimidazolidin-1-yl)phenoxy)ethyl)-N-((S)-1-(4-(4-methylthiazol-5-yl)phenyl)ethyl)-4,7,10,21-tetraoxo-11H-5,12,16,20-tetraoxa-9-aza-1(4,1)-triazola-6(3,1)-pyrrolidineacyclohexaco-saphane-65-carboxamide] | – | – | Dmax (VCaP, read-out: VCaP Dmax (%)): 26 to 50%; DC50 (read-out: VCaP DC50; VCaP cells; Table 36): 51 to 500 nM
CC(C)(C)[C@H](NC(=O)COCCCCCNc1ccc(C(=O)N[C@H]2C(C)(C)[C@H](Oc3ccc(C#N)c(Cl)c3)C2(C)C)cc1)C(=O)N1C[C@H](O)C[C@H]1C(=O)NCc1ccc(-c2cncnc2)cc1 [Example 534] | – | – | DC50 [3]: < 50 nM; Dmax [4]: 51 to 70%
Cc1ncsc1-c1ccc(CNC(=O)[C@@H]2C[C@@H](O)CN2C(=O)[C@@H](NC(=O)COCCCCCS(=O)(=O)c2ccc(C(=O)N[C@H]3C(C)(C)[C@H](Oc4ccc(C#N)c(Cl)c4)C3(C)C)cc2)C(C)(C)C)cc1 [Example 476] | – | – | DC50 [3]: < 50 nM; Dmax [4]: > 71%
CC(C)(C)[C@H](NC(=O)COCCCCOc1ccc(-c2ccc(N3C(=S)N(c4ccc(C#N)c(F)c4)C(=O)C3(C)C)cc2)cc1)C(=O)N1C[C@H](O)C[C@H]1C(=O)NCc1ccc(-c2cnco2)cc1 [Example 126, (2S,4R)-1-[(2S)-2-{2-[4-(4-{4-[3-(4-cyano-3-fluorophenyl)-5,5-dimethyl-4-oxo-2-sulfanylideneimidazolidin-1-yl]phenyl}phen-oxy)butoxy]acetamido}-3,3-dimethylbutanoyl]-4-hydroxy-N-{[4-(1,3-oxazol-5-yl)phenyl]methyl}pyrrolidine-2-carboxamide] | – | – | Dmax (VCaP, highest percentage of Androgen Receptor degradation observed, VCaP cells (Table 32); read-out: VCaP Dmax (%)): 51 to 70%; DC50 (concentration that caused 50% Androgen Receptor degradation, VCaP cells (Table 32); read-out: VCaP DC50): < 50 nM
CC(C)(C)[C@H](NC(=O)COCCN1CCN(c2ccc(C(=O)N[C@H]3C(C)(C)[C@H](Oc4ccc(C#N)c(Cl)c4)C3(C)C)cn2)CC1)C(=O)N1C[C@H](O)C[C@H]1C(=O)NCc1ccc(C#N)cc1 [Example 736, N-((1r,3r)-3-(3-chloro-4-cyanophenoxy)-2,2,4,4-tetramethylcyclobutyl)-6-(4-(2-(2-(((S)-1-((2S,4R)-2-((4-cyanobenzyl)carbamoyl)-4-hydroxypyrrolidin-1-yl)-3,3-dimethyl-1-oxobutan-2-yl)amino)-2-oxoethoxy)ethyl)pipera-zin-1-yl)nicotinamide] | < 50 | 51 to 70 | –
Cc1ncsc1-c1ccc([C@@H](CN)NC(=O)[C@@H]2C[C@@H](O)CN2C(=O)[C@@H](NC(=O)COCCCCCOc2ccc(C(=O)N[C@H]3C(C)(C)[C@H](Oc4ccc(C#N)c(Cl)c4)C3(C)C)cc2)C(C)(C)C)cc1 [Example 474] | – | – | DC50 [3]: < 50 nM; Dmax [4]: 26 to 50%
Cc1ncsc1-c1ccc([C@H](C)NC(=O)[C@@H]2C[C@@H](O)CN2C(=O)[C@H](c2cc(N3CCN(CCCc4ccc(C(=O)N[C@H]5C(C)(C)[C@H](Oc6ccc(C#N)c(Cl)c6)C5(C)C)cc4)CC3)no2)C(C)C)cc1 [Example 796, (2S,4R)-1-((S)-2-(3-(4-(3-(4-(((1r,3r)-3-(3-chloro-4-cyanophenoxy)-2,2,4,4-tetramethylcyclobutyl)carbamoyl)phenyl)propyl)piperazin-1-yl)isoxazol-5-yl)-3-methylbutanoyl)-4-hydroxy-N-((S)-1-(4-(4-methylthiazol-5-yl)phenyl)ethyl)pyrrolidine-2-carboxamide] | > 501 | 26 to 50 | –
CC(C)(C)[C@H](NC(=O)COCCN1CCN(c2ccc(C(=O)N[C@H]3C(C)(C)[C@H](Oc4ccc(C#N)c(Cl)c4)C3(C)C)cn2)CC1)C(=O)N1C[C@H](O)C[C@H]1C(=O)NCc1ccc(C2CCCC2)cc1 [Example 759, N-((1r,3r)-3-(3-chloro-4-cyanophenoxy)-2,2,4,4-tetramethylcyclobutyl)-6-(4-(2-(2-(((S)-1-((2S,4R)-2-((4-cyclopentylbenzyl)car-bamoyl)-4-hydroxypyrrolidin-1-yl)-3,3-dimethyl-1-oxobutan-2-yl)amino)-2-oxoethoxy)ethyl)pipera-zin-1-yl)nicotinamide] | > 501 | < 25 | –
[2H]C(Nc1ccc(C(=O)N[C@H]2C(C)(C)[C@H](Oc3ccc(C#N)c(Cl)c3)C2(C)C)cc1)C([2H])([2H])C([2H])([2H])C([2H])([2H])C([2H])([2H])OCC(=O)N[C@H](C(=O)N1C[C@H](O)C[C@H]1C(=O)N[C@@H](C)c1ccc(-c2scnc2C)cc1)C(C)(C)C (stereo partly drawn) [Example 863] | < 50 | > 71 | –
Cc1ncsc1-c1ccc([C@H](C)NC(=O)[C@@H]2C[C@@H](O)CN2C(=O)C(NC(=O)CO[C@H]2CCCC[C@@H]2N2CCN(CCOc3ccc(C(=O)N[C@H]4C(C)(C)[C@H](Oc5ccc(C#N)c(Cl)c5)C4(C)C)cc3)CC2)C(C)(C)C)cc1 (stereo partly drawn) [Example 791, (2S,4R)-1-((S)-2-(2-(((1S,2S)-2-(4-(2-(4-(((1r,3r)-3-(3-chloro-4-cyanophenoxy)-2,2,4,4-tetramethylcyclobutyl)carbamoyl)phenoxy)ethyl)piperazin-1-yl)cyclohexyl)oxy)acetamido)-3,3-dimethylbutanoyl)-4-hydroxy-N-((S)-1-(4-(4-methylthiazol-5-yl)phenyl)ethyl)pyrrolidine-2-carboxamide] | > 501 | < 25 | –
